Test results: US20120065063A1, “3-Aryl-4-(2,6-dimethylbenzylidene)isoxazol-5(4H)-ones as Fungicides” (Bayer CropScience AG, priority 2010, published 2012)

Key:
[1] = log P by HPLC on reversed-phase columns (EEC directive 79/831 Annex V.A8); type: physicochemical; conditions: for chromatographic logP: reversed-phase HPLC column (C18), preparation examples, acidic range pH 2.7, formic acid, read-out: log P (HCOOH); for log P: acidic range pH 2.7, 0.1% aqueous formic acid/acetonitrile
Method: The log P values were measured according to EEC directive 79/831 Annex V.A8 by HPLC (High Performance Liquid Chromatography) on reversed-phase columns (C 18), using the method below:
The determination was carried out in the acidic range at pH 2.7 using the mobile phases 0.1% aqueous formic acid and acetonitrile; linear gradient from 10% acetonitrile to 95% acetonitrile.

[2] = system: Blumeria graminis f.sp. tritici; test: Blumeria test (wheat)/protective; type: in vivo; conditions: protective, 1000 ppm, evaluation 7 days after inoculation
Method: Blumeria Test (Wheat)/Protective [table] To produce an appropriate active compound formulation, I part by weight of active compound is mixed with the specified amounts of solvent and emulsifier, and the concentrate is diluted with water to the desired concentration. To test for protective activity, young plants are sprayed with the preparation of active compound at the stated application rate. After the spray coating has dried on, the plants are dusted with spores of Blumeria graminis f.sp. tritici.

[3] = system: Alternaria solani; test: Alternaria test (tomato)/protective; type: in vivo; conditions: protective, 500 ppm, evaluation 7 days after inoculation
Method: Alternaria Test (Tomato)/Protective [table] To produce an appropriate active compound formulation, 1 part by weight of active compound is mixed with the specified amounts of solvent and emulsifier, and the concentrate is diluted with water to the desired concentration. To test for protective activity, young tomato plants are sprayed with the preparation of active compound at the stated application rate. 1 day after the treatment, the plants are inoculated with a spore suspension of Alternaria solani and then remain at 100% relative humidity and 20° C. for 24 h. The plants then remain at 96% relative atmospheric humidity and a temperature of 20° C.

[4] = system: Sphaerotheca fuliginea; test: Sphaerotheca test (cucumber)/protective; type: in vivo; conditions: protective, 500 ppm, evaluation 7 days after inoculation
Method: Sphaerotheca Test (Cucumber)/Protective [table] To produce an appropriate active compound formulation, 1 part by weight of active compound is mixed with the specified amounts of solvent and emulsifier, and the concentrate is diluted with water to the desired concentration. To test for protective activity, young cucumber plants are sprayed with the preparation of active compound at the stated application rate. 1 day after the treatment, the plants are inoculated with a spore suspension of Sphaerotheca fuliginea. The plants are then placed in a greenhouse at 70% relative atmospheric humidity and a temperature of 23° C.

| SMILES | log P [1] | other results |
| --- | --- | --- |
| COc1ccccc1C1=NOC(=O)C1 [3-(2-methoxyphenyl)isoxazol-5(4H)-one] |  | chromatographic logP [1]: 1.67 |
| O=C1CC(c2cccc(C(F)(F)F)c2)=NO1 [3-(3-trifluoromethylphenyl)isoxazol-5(4H)-one] |  | chromatographic logP [1]: 2.4 |
| O=C1CC(c2ccc(F)cc2)=NO1 [3-(4-fluorophenyl)isoxazol-5(4H)-one] |  | chromatographic logP [1]: 1.74 |
| Cc1cc(C)c(/C=C2\C(=O)ON=C2c2cccc(C(F)(F)F)c2)c(C)c1 [Compound 1-59, 4-(2,4,6-trimethylbenzylidene)-3-(3-trifluoromethylphenyl)-1,2-oxazol-5(4H)-one] |  | chromatographic logP [1]: 4.62 |
| O=C1ON=C(c2ccccc2)C1=Cc1ccccc1 [Compound A-1] |  | efficacy [2]: 29%; efficacy [3]: 0%; efficacy [4]: 30% |
| Cc1cc(C)c(C=C2C(=O)ON=C2c2ccccc2C(F)(F)F)c(C)c1 [Compound I-1] | 4.34 |  |
| Cc1cc(C)c(C=C2C(=O)ON=C2c2ccccc2OC(F)(F)F)c(C)c1 [Compound I-2] | 4.59 |  |
| Cc1cccc(C)c1C=C1C(=O)ON=C1c1ccccc1[N+](=O)[O-] [Compound I-4] | 3.40 |  |
| Cc1ccccc1C1=NOC(=O)C1=Cc1c(C)cccc1C [Compound I-9] | 3.95 |  |
| Cc1cccc(C2=NOC(=O)C2=Cc2c(C)cccc2C)c1C [Compound I-12] | 4.26 |  |
| COc1cccc(OC)c1C1=NOC(=O)C1=Cc1c(C)cc(C)cc1C [Compound I-15] | 3.95 |  |
| COc1cccc(C2=NOC(=O)C2=Cc2c(C)cc(C)cc2C)c1OC [Compound I-16] | 4.08 |  |
| COc1ccc(F)cc1C1=NOC(=O)C1=Cc1c(C)cc(C)cc1C [Compound I-17] | 4.12 |  |
| COc1ccccc1C1=NOC(=O)/C1=C\c1c(C)cccc1C [Compound I-18, 4-(2,6-dimethylbenzylidene)-3-(2-methoxyphenyl)-1,2-oxazol-5(4H)-one] |  | chromatographic logP [1]: 3.69 |
| COc1cccc(C2=NOC(=O)C2=Cc2c(C)cccc2C)c1OC [Compound I-20] | 3.73 |  |
| COc1ccc(F)cc1C1=NOC(=O)C1=Cc1c(C)cccc1C [Compound I-21] | 3.75 |  |
| Cc1cc(C)c(C=C2C(=O)ON=C2c2ccccc2I)c(C)c1 [Compound I-22] | 4.51 |  |
| CCOc1ccccc1C1=NOC(=O)C1=Cc1c(C)cc(C)cc1C [Compound I-26] | 4.42 |  |
| CCOc1ccccc1C1=NOC(=O)C1=Cc1c(C)cccc1C [Compound I-27] | 4.00 |  |
| Cc1cc(C)c(C=C2C(=O)ON=C2c2ccccc2Cl)c(C)c1 [Compound I-28] | 4.38 |  |
| Cc1cccc(C)c1C=C1C(=O)ON=C1c1ccccc1Cl [Compound I-29] | 3.97 |  |
| Cc1cc(C)c(C=C2C(=O)ON=C2c2ccccc2OCc2ccccc2)c(C)c1 [Compound I-30] | 4.86 |  |
| Cc1cccc(C)c1C=C1C(=O)ON=C1c1ccccc1OCc1ccccc1 [Compound I-31] | 4.51 |  |

| SMILES | log P [1] | other results |
| --- | --- | --- |
| Cc1cc(C)c(C=C2C(=O)ON=C2c2ccccc2SC(F)F)c(C)c1 [Compound I-32] | 4.27 |  |
| Cc1cccc(C)c1C=C1C(=O)ON=C1c1cccc(Cl)c1Cl [Compound I-34] | 4.31 |  |
| Cc1cc(C)c(C=C2C(=O)ON=C2c2ccc(Cl)cc2Cl)c(C)c1 [Compound I-35] | 4.94 |  |
| Cc1cc(C)c(C=C2C(=O)ON=C2c2cc(F)ccc2F)c(C)c1 [Compound I-36] | 4.12 |  |
| Cc1cccc(C)c1C=C1C(=O)ON=C1c1cc(F)ccc1F [Compound I-37] | 3.77 |  |
| Cc1cc(C)c(C=C2C(=O)ON=C2c2cc(F)ccc2Cl)c(C)c1 [Compound I-38] | 4.42 |  |
| Cc1cccc(C)c1C=C1C(=O)ON=C1c1cc(F)ccc1Cl [Compound I-39] | 3.96 |  |
| Cc1cc(C)c(C=C2C(=O)ON=C2c2cc(Cl)ccc2Cl)c(C)c1 [Compound I-40] | 4.71 |  |
| Cc1cc(C)c(C=C2C(=O)ON=C2c2cc(Br)ccc2Cl)c(C)c1 [Compound I-41] | 4.83 |  |
| Cc1cccc(C)c1C=C1C(=O)ON=C1c1cc(Br)ccc1Cl [Compound I-42] | 4.46 |  |
| Cc1cc(C)c(C=C2C(=O)ON=C2c2cc(Br)ccc2Br)c(C)c1 [Compound I-43] | 5.05 |  |
| Cc1cccc(C)c1C=C1C(=O)ON=C1c1cc(Br)ccc1Br [Compound I-44] | 4.57 |  |
| Cc1cc(C)cc(C2=NOC(=O)C2=Cc2c(C)cc(C)cc2C)c1 [Compound I-48] | 4.88 |  |
| Cc1ccc(C2=NOC(=O)C2=Cc2c(C)cccc2C)cc1C [Compound I-50] | 4.41 |  |
| Cc1cccc(C)c1C=C1C(=O)ON=C1c1ccccc1 [Compound I-52] | 3.68 |  |
| COc1cc(OC)cc(C2=NOC(=O)C2=Cc2c(C)cc(C)cc2C)c1 [Compound I-53] | 4.21 |  |
| Cc1cc(C)c(C=C2C(=O)ON=C2c2cc(Cl)cc(Cl)c2)c(C)c1 [Compound I-58] | 5.01 |  |
| Cc1cc(C)c(C=C2C(=O)ON=C2c2ccc(OC(F)(F)F)cc2)c(C)c1 [Compound I-60] | 4.73 |  |
| Cc1cc(C)c(C=C2C(=O)ON=C2c2ccc(OC(C)C)cc2)c(C)c1 [Compound I-62] | 4.70 |  |
| Cc1cc(C)c(C=C2C(=O)ON=C2c2ccc(-c3ccccc3)cc2)c(C)c1 [Compound I-63] | 5.16 |  |
| Cc1cc(C)c(C=C2C(=O)ON=C2c2ccc(OCc3ccccc3)cc2)c(C)c1 [Compound I-64] | 5.01 |  |
| Cc1cc(C)c(/C=C2\C(=O)ON=C2c2ccc(F)cc2)c(C)c1 [Compound I-68, 4-(2,4,6-trimethylbenzylidene)-3-(4-fluorophenyl)-1,2-oxazol-5(4H)-one] |  | chromatographic logP [1]: 4.08 |
| COC(=O)CC(=O)c1cccc(C(F)(F)F)c1 [methyl 3-trifluoromethylbenzoylacetate] |  | chromatographic logP [1]: 2.57 |

Second part, led by results:

| log P [1] | SMILES | other results |
| --- | --- | --- |
| 3.76 | Cc1cc(C)c(C=C2C(=O)ON=C2c2ccccc2[N+](=O)[O-])c(C)c1 [Compound I-3] |  |
| 4.68 | Cc1cc(C)c(C=C2C(=O)ON=C2c2cccc(C)c2C)c(C)c1 [Compound I-8] |  |
| 4.01 | Cc1cc(C)c(C=C2C(=O)ON=C2c2ccccc2)c(C)c1 [Compound I-13] |  |
| 4.07 | Cc1cc(C)c(C=C2C(=O)ON=C2c2ccccc2F)c(C)c1 [Compound I-23] |  |
| 4.80 | Cc1cc(C)c(C=C2C(=O)ON=C2c2cccc(Cl)c2Cl)c(C)c1 [Compound I-33] |  |
| 4.62 | Cc1cc(C)c(C=C2C(=O)ON=C2c2cccc(C(F)(F)F)c2)c(C)c1 [Compound I-45] |  |
| 3.85 | Cc1cc(C)c(C=C2C(=O)ON=C2c2cccc([N+](=O)[O-])c2)c(C)c1 [Compound I-46] |  |
| 4.45 | Cc1cccc(C2=NOC(=O)C2=Cc2c(C)cc(C)cc2C)c1 [Compound I-47] |  |
| 4.81 | Cc1cc(C)c(C=C2C(=O)ON=C2c2ccc(C)c(C)c2)c(C)c1 [Compound I-49] |  |
| 4.49 | Cc1cc(C)cc(C2=NOC(=O)C2=Cc2c(C)cccc2C)c1 [Compound I-51] |  |
| 4.09 | COc1ccc(C2=NOC(=O)C2=Cc2c(C)cc(C)cc2C)cc1OC [Compound I-54] |  |
| 4.15 | Cc1cc(C)c(C=C2C(=O)ON=C2c2cccc(F)c2)c(C)c1 [Compound I-55] |  |
| 4.48 | Cc1cc(C)c(C=C2C(=O)ON=C2c2cccc(Cl)c2)c(C)c1 [Compound I-56] |  |
| 4.95 | Cc1cc(C)c(C=C2C(=O)ON=C2c2ccc(Cl)c(Cl)c2)c(C)c1 [Compound I-57] |  |
| 4.62 | Cc1cc(C)c(C=C2C(=O)ON=C2c2ccc(C(F)(F)F)cc2)c(C)c1 [Compound I-59] |  |
| 5.43 | Cc1cc(C)c(C=C2C(=O)ON=C2c2ccc(C(C)(C)C)cc2)c(C)c1 [Compound I-61] |  |
| 3.99 | Cc1cc(C)c(C=C2C(=O)ON=C2c2ccc([N+](=O)[O-])cc2)c(C)c1 [Compound I-65] |  |
| 4.44 | Cc1ccc(C2=NOC(=O)C2=Cc2c(C)cc(C)cc2C)cc1 [Compound I-66] |  |
| 4.00 | COc1ccc(C2=NOC(=O)C2=Cc2c(C)cc(C)cc2C)cc1 [Compound I-67] |  |
| 4.46 | CCOc1ccc(C2=NOC(=O)C2=Cc2c(C)cc(C)cc2C)cc1 [Compound I-69] |  |
